# The source made the active and inactive calls.
# Experiments:
# [1] = molecular target: T1, Corticotropin-releasing factor receptor 2/Corticotropin-releasing factor-binding protein (Homo sapiens, UniProt P24387+Q13324); test: Dose Response confirmation of uHTS hits for small molecule antagonists of the CRF-binding protein and CRF-R2 receptor complex.; type: functional; details: read-out: IC50_Mean
# T1 sequence (Q13324 whole entry): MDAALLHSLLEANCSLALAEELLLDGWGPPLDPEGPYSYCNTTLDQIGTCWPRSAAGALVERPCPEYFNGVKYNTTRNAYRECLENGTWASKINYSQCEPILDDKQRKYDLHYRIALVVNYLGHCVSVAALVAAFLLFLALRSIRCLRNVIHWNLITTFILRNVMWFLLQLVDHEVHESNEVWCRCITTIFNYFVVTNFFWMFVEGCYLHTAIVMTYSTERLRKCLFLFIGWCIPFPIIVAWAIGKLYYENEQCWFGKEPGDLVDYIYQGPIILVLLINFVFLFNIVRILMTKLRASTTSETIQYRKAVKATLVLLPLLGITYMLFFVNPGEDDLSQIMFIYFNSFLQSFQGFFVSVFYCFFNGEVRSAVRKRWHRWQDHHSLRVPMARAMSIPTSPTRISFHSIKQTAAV
# T1 sequence (P24387 whole entry): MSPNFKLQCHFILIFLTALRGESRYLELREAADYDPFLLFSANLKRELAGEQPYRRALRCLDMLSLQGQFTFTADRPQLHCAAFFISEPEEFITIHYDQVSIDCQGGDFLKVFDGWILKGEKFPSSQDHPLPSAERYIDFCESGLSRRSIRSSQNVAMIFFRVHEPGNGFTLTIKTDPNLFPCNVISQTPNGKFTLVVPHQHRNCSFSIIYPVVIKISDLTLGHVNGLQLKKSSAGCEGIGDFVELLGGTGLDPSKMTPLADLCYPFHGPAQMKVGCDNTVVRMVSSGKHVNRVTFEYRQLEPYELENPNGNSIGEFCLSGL
# [2] = CRF-BP/CRF-R2 complex antagonists, dose response, cell-based, uHTS hits, 384-well (AID 651639); type: functional, Homo sapiens; details: read-out: IC50_Mean
# [3] = molecular target: T1, Corticotropin-releasing factor receptor 2/Corticotropin-releasing factor-binding protein; test: activators of CRF receptor 2 with binding protein – uHTS hits, confirmation (AID 602473); type: functional; details: read-out: EC50_Mean
# [4] = molecular target: T2, Leucine aminopeptidase (Plasmodium falciparum 3D7, UniProt Q8IL11); test: P. falciparum M17LAP inhibitors, primary screen, biochemical, fluorogenic H-Leu-NHMec substrate, 1536-well (AID 1619); type: functional
# T2 sequence (Q8IL11 whole entry): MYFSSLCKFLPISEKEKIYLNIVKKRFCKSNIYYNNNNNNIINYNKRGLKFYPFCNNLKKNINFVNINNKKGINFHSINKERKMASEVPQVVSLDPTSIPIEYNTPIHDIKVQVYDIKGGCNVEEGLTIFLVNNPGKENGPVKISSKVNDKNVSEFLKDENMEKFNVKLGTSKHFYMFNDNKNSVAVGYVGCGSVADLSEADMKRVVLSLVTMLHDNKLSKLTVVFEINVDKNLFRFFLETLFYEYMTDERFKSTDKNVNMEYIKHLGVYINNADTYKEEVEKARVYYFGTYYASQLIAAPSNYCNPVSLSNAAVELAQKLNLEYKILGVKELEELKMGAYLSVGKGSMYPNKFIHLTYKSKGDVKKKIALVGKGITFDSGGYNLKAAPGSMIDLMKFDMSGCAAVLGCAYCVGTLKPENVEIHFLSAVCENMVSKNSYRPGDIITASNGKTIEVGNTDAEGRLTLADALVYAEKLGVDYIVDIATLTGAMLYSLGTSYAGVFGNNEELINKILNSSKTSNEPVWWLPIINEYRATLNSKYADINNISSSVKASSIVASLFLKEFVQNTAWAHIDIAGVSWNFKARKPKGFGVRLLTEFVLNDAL
# [5] = molecular target: Genome polyprotein (dengue virus type 2, UniProt P29990); test: Dengue-2 NS5 methyltransferase inhibitors, primary screen, biochemical, confirmation dose response (AID 588689); type: functional
# Sequence of Genome polyprotein (P29990 2492-3391 limits assumed): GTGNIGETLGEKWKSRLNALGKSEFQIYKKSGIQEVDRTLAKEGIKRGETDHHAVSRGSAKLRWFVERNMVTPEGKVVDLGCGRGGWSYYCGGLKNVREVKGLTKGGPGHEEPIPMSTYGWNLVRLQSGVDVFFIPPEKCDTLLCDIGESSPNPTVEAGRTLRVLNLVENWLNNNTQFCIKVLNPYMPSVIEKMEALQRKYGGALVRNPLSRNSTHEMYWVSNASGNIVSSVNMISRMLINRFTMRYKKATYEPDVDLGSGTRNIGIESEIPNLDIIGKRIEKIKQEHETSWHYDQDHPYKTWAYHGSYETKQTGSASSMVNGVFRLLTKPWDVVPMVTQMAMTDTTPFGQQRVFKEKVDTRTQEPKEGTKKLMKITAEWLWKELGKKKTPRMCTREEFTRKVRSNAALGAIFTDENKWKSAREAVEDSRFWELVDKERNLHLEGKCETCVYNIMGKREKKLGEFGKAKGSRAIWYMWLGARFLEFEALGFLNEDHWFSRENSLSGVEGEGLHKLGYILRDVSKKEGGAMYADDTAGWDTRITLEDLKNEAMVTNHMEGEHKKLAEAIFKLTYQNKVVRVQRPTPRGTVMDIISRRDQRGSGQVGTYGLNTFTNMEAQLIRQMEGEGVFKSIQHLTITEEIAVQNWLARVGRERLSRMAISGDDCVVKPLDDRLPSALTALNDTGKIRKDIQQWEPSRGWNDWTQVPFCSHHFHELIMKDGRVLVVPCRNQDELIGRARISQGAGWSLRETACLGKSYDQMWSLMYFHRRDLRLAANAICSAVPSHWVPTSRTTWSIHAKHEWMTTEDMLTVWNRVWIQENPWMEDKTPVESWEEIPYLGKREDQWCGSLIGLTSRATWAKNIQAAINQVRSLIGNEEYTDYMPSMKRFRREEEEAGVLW
# [6] = molecular target: T3, Polyadenylate-binding protein 1 (Homo sapiens, UniProt P11940); test: PABP1 MLLE–PAM2 interaction inhibitors, dose response, miRNA deadenylation inhibitor project, biochemical, fluorescence polarization, Cy5-PAM2 peptide, secondary (AID 602260); type: functional; details: read-out: IC50_Mean
# T3 sequence (P11940 whole entry): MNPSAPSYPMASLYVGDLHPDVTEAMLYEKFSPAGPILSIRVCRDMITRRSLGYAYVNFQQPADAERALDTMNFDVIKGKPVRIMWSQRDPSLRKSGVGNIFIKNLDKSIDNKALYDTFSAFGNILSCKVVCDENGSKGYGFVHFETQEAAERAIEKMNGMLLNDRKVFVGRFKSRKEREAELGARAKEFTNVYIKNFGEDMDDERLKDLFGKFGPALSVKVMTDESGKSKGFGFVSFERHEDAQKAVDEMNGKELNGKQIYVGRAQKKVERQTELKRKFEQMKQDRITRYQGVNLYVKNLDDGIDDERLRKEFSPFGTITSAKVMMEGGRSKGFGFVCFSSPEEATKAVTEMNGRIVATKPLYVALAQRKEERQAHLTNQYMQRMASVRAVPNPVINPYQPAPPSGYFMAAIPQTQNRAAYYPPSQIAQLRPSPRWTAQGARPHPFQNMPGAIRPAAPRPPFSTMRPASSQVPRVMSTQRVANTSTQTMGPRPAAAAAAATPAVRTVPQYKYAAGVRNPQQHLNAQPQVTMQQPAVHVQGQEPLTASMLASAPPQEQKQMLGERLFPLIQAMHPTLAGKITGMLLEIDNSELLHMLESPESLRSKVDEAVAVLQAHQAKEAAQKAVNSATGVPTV
# [7] = molecular target: T3, Polyadenylate-binding protein 1; test: PABP1 MLLE–PAM2 binding inhibitor potency, dose response, biochemical, fluorescence polarization, FITC-PAM2 peptide (AID 602259); type: functional; details: read-out: IC50_Mean
# [8] = molecular target: T4, Fatty acid synthase (Homo sapiens, UniProt P49327); test: FAS thioesterase domain inhibitors, dose response, biochemical, kinetic fluorescence intensity (AID 624326); type: functional;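 note: rate of fluorescence rise from hydrolysis of a fluorogenic O-methyl fluorescein ester substrate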
# T4 sequence (P49327 whole entry, the tested form may be a part): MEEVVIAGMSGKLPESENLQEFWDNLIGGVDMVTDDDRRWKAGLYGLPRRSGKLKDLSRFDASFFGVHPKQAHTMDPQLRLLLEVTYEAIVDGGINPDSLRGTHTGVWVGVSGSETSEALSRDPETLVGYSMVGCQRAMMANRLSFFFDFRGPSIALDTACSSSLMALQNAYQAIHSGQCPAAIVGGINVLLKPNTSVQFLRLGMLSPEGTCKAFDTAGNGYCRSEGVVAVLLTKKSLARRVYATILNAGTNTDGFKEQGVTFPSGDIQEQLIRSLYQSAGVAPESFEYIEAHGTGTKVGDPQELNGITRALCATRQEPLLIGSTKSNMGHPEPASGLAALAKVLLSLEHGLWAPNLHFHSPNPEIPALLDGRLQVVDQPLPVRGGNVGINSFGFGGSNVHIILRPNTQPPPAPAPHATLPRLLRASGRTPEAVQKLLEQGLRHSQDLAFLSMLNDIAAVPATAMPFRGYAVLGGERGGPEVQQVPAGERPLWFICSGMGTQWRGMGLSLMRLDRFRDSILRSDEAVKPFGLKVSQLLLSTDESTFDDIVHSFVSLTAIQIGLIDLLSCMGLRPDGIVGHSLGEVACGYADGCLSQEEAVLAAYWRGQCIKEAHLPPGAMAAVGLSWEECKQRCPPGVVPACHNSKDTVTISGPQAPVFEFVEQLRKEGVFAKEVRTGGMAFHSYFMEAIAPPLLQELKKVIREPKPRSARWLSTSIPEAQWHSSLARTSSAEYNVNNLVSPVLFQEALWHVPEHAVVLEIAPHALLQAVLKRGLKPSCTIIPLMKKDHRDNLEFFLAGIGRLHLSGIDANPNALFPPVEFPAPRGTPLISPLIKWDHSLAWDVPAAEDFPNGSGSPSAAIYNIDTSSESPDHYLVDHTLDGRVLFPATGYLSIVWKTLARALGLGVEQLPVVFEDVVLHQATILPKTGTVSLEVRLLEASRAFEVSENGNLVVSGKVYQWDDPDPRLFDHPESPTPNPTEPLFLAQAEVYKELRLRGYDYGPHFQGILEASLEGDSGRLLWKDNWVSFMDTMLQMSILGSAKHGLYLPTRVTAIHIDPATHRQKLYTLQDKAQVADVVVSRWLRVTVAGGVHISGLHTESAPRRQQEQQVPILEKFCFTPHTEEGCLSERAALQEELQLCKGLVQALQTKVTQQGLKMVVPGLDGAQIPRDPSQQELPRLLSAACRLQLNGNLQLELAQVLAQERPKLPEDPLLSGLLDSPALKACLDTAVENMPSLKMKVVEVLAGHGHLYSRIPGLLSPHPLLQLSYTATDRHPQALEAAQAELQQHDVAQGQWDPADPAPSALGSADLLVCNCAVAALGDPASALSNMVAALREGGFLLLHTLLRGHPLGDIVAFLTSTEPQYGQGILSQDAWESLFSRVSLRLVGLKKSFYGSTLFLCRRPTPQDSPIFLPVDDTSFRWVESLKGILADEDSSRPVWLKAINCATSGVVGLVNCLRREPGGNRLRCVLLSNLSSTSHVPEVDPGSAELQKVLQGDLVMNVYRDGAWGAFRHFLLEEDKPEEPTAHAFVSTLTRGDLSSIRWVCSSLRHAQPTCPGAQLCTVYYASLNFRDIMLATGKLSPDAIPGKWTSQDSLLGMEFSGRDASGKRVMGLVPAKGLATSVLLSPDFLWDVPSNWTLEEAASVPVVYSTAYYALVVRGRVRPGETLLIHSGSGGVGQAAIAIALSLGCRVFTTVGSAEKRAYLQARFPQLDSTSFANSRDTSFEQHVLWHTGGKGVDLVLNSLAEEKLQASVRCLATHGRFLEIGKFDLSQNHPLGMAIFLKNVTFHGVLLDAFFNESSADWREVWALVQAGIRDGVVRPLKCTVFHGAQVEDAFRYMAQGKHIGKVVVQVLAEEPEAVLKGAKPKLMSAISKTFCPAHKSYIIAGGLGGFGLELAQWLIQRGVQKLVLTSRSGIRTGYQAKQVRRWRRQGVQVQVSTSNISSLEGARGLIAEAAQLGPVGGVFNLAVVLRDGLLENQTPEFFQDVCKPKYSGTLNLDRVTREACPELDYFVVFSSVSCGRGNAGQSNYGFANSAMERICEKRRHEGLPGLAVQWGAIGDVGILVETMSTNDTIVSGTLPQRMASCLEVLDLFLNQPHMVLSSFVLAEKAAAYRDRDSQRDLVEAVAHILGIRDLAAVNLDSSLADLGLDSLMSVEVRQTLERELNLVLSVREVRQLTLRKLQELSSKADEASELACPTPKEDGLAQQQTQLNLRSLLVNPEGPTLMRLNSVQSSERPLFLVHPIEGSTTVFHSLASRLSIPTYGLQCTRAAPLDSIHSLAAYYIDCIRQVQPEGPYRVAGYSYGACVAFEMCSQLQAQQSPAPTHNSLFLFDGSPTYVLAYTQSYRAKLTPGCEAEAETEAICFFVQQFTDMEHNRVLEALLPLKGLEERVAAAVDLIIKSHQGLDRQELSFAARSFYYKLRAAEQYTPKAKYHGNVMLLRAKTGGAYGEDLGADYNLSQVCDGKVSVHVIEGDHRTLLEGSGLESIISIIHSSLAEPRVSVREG
# [9] = molecular target: T4, Fatty acid synthase; test: FAS thioesterase domain inhibitors, dose response, biochemical, endpoint fluorescence intensity, uHTS hits (AID 624327); type: functional;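 note: fluorescence from hydrolysis of an O-methyl fluorescein acyl ester substrate by the enzyme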
# [10] = system: BJ; test: cytotoxicity toward BJ-TERT fibroblasts, dose response, cell-based, RAS-independent, luminescence (AID 1933); type: functional; details: Homo sapiens
# [11] = system: BJ; test: cytotoxicity toward BJ-TERT-LT-ST fibroblasts, dose response, cell-based, RAS-independent, luminescence (AID 1935); type: functional; details: Homo sapiens;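 note: BJ fibroblasts immortalized with TERT plus LT and ST oncogenes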
# [12] = cytotoxicity toward DRD oncogenic fibroblasts, dose response, cell-based, non-viral oncogenic, luminescence (AID 1934); type: functional; details: Homo sapiens
# [13] = system: BJ; test: cells; type: functional, cell-based; details: Homo sapiens
# [14] = system: BJ; test: cytotoxicity toward Ras-transformed BJeLR fibroblasts, dose response, cell-based, alamar blue fluorescence, cherrypicked samples (AID 2631); type: functional; details: Homo sapiens;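 note: confirmatory dose-response assay in RAS-dependent BJ fibroblasts engineered with TERT, LT and ST, with cytotoxicity read by fluorescence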
# [15] = system: HEK293; test: inhibitors of LMP1-driven NF-kB reporter, dose response, cell-based, HEK293, luciferase, cherry-pick (AID 588343); type: functional; details: Homo sapiens
# [16] = system: H4; test: Luminescence Cell-Based Dose Response HTS to Identify Activators of 5'UTR Stem-Loop Driven Prion Protein mRNA Translation in H4 Neuroglioblastoma Cells. [Related pubchem assays: 1829 (Project Summary), 1814 (Primary HTS)]; type: functional; details: Homo sapiens
# [17] = molecular target: Nucleotide-binding oligomerization domain-containing protein 2 (Homo sapiens, UniProt Q9HC29); test: NOD2 signaling inhibitors, cell-based, luminescence, uHTS, HEK293 (AID 1566); type: functional
# [18] = system: HEK293; test: cells; type: functional, cell-based; details: Homo sapiens
# [19] = system: HEK293; test: cells; type: functional, cell-based; details: Homo sapiens; remark: listed apart in the source
# [20] = system: HEK293; test: NOD2 signaling inhibitors in MDP-stimulated cells, cell-based, uHTS, luminescence (AID 2001); type: functional; details: Homo sapiens
# [21] = system: HEK293; test: cells; type: functional, cell-based; details: Homo sapiens; remark: listed apart in the source
# [22] = system: HEK293; test: NOD1 signaling inhibitors, primary screen, cell-based, luminescence, uHTS (AID 1578); type: functional; details: Homo sapiens
# [23] = cytotoxicity in HEK-293T cells, dose response, cytotoxicity control for TCR NF-kB inhibitor project, luminescence, T-cell screen hits (AID 489026); type: functional, cell-based;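 note: cells exposed to compound about 14 hours before the viability readout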
# [24] = molecular target: T5, Probable nicotinate-nucleotide adenylyltransferase (Staphylococcus aureus (strain N315), UniProt P65502); type: functional, Staphylococcus aureus subsp. aureus N315; details: read-out: IC50_Mean;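 for IC50 Mean: confirmatory dose-response retesting of NadD inhibitor hits first found in an ultra-high-throughput screen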
# T5 sequence (P65502 whole entry): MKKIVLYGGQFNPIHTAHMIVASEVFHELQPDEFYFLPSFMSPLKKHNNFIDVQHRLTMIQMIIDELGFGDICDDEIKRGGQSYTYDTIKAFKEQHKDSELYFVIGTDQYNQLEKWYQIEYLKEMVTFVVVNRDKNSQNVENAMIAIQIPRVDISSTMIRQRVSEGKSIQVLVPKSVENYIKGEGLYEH
# [25] = molecular target: T5, Probable nicotinate-nucleotide adenylyltransferase; type: functional, Staphylococcus aureus subsp. aureus N315
# [26] = molecular target: T6, Short transient receptor potential channel 4 (Mus musculus, UniProt Q9QUQ5); test: mouse TRPC4 channel inhibitors, dose response, cell-based, HEK293 TRPC4/mu-opioid, Fluo-4 calcium (AID 434942); type: functional;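 note: potency of inhibitors blocking the TRPC4 calcium response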
# T6 sequence (Q9QUQ5 whole entry): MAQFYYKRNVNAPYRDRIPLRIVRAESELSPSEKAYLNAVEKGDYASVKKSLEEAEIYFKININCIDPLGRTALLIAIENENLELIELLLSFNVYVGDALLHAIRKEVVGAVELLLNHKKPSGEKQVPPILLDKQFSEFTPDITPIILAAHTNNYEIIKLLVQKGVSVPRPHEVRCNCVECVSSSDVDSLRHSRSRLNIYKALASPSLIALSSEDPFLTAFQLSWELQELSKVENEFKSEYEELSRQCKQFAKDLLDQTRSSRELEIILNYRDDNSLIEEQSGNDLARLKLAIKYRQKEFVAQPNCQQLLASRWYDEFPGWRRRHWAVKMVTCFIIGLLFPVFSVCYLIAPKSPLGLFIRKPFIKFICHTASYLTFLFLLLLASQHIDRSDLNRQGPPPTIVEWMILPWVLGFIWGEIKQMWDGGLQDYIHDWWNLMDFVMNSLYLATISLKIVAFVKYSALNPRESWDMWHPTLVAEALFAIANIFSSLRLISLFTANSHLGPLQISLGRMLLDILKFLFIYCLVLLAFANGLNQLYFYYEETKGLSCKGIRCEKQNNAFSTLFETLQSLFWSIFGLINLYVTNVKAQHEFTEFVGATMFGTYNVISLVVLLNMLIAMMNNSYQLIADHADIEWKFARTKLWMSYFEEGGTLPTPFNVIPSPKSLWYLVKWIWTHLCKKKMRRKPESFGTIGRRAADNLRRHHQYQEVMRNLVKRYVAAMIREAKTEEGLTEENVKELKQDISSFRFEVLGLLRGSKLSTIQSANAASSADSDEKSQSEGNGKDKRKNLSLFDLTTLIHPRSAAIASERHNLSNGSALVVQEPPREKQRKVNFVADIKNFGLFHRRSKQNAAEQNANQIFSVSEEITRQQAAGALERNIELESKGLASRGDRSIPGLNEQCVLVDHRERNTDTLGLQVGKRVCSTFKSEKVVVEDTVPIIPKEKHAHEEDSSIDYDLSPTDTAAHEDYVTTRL
structure (smiles),measurement,setting,value
O=C(COc1ccc2ccccc2c1)Nc1cccc(C(=O)Nc2ccccc2C(=O)O)c1,IC50,[1],2.55 µM (active)
same,IC50,[2],7.44 µM (active)
same,EC50,[3],> 53 µM (inactive)
same,IC50,[4],8.71 µM (active)
CCC(=O)N(Cc1c(C)nn(-c2ccccc2)c1Cl)c1ccc(Cl)cc1,IC50,[1],7.02 µM (active)
same,IC50,[2],19.8 µM (active)
same,EC50,[3],> 53 µM (inactive)
COc1ccc(Nc2cc(Cl)ccc2C(=O)O)cn1,IC50,[5],63.5 µM (active)
same,IC50,[6],> 66 µM (inactive)
same,IC50,[7],52.2 µM (inactive)
CCOC(=O)c1sc(N2C(=O)C(O)=C(C(=O)c3ccco3)C2c2ccc([N+](=O)[O-])cc2)nc1C (stereo unspecified),IC50,[8],7.89 µM (active)
same,IC50,[5],38.1 µM (active)
same,IC50,[9],5.46 µM (active)
COc1ccc(NC(=O)CN(C)S(=O)(=O)c2ccc3nc(O)oc3c2)cc1,EC50,[10],> 150 µM (not active)
same,EC50,[11],47.8 µM (active)
same,EC50,[12],> 150 µM (not active)
same,EC50,[13],> 150 µM (not active)
same,EC50,[14],> 133 µM (inactive)
O=C(c1ccc(COc2ccccc2Cl)o1)N1CCCC1,AC50,[15],77.8 µM (active)
CCS(=O)(=O)c1nnnn1-c1ccccc1S(C)(=O)=O,EC50,[16],> 120 µM (not active)
same,EC50,[17],> 20 µM (inactive)
same,IC50,[18],> 20 µM (inactive)
same,AC50,[15],11.3 µM (active)
same,IC50,[19],6.55 µM (active)
same,IC50,[20],9.2 µM (active)
same,IC50,[21],> 20 µM (inactive)
same,EC50,[22],11.7 µM (active)
Cc1ccc2[nH]c3c(c2c1)CCCC3NC(=O)CCl (stereo unspecified),EC50,[10],13.8 µM (active)
same,EC50,[11],> 150 µM (inconclusive)
same,EC50,[12],7.41 µM (inconclusive)
same,IC50,[23],> 80 µM (inactive)
same,AC50,[15],2.36 µM (active)
same,EC50,[13],8.7 µM (active)
same,EC50,[14],0.565 µM (active)
N#C/C(=C/c1cn(-c2ccccc2)nc1-c1cccc(S(=O)(=O)N2CCCC2)c1)C(=O)NCc1ccco1,IC50,[24],50.1 µM (active)
same,IC50,[25],14.4 µM (active)
Cc1cc([N+](=O)[O-])ccc1NCc1ccco1,IC50,[1],23.1 µM (active)
same,IC50,[2],7.36 µM (active)
same,EC50,[26],5.96 µM (active)
same,EC50,[3],> 53 µM (inactive)
CCCCN(CCCC)c1ccc(C(=O)c2ccccc2C(=O)O)c(O)c1,IC50,[5],44.1 µM (active)
COc1ccc(Cl)cc1NC(=O)CN(C)S(=O)(=O)c1cccs1,AC50,[15],51.2 µM (active)
COC(=O)c1cc(C#N)c(NCc2ccccc2)nc1C,IC50,[1],8.02 µM (active)
same,IC50,[2],> 20 µM (inactive)
same,EC50,[3],> 53 µM (inactive)
O=C(O)/C(=C\c1c(C(=O)O)[nH]c2cc(Cl)cc(Cl)c12)c1ccccc1,IC50,[5],75.5 µM (active)
